Entries after “also recorded” stand apart in the source; their conditions may differ.
Assays:
CDK2/cyclin E = molecular target: T1, CDK2/cyclin E (Homo sapiens, UniProt P24941); experiment: CDK2/cyclin E kinase inhibition assay; assay type: biochemical; details: kinase inhibitory activity, 15 μM ATP, histone substrate
T1 construct: made in house; host or cells: Sf9 insect cells, baculovirus co-infection
Experimental: (§1) Selected compounds were tested for CDK1/cyclin B, CDK2/cyclin E, CDK5/p25, CDK7/cyclin H and CDK9/cyclin T inhibitory activity to determine the basic relationships between their structure and the inhibitory activity. Cdk/cyclin complexes were expressed in Sf9 cells co-infected with appropriate baculoviral construct. The cells were harvested 70 hours post infection in lysis buffer (50 mM Tris pH 7.4, 150 mM NaCl, 5 mM EDTA, 20 mM NaF, 1% Tween 20, protease inhibitors) for 30 min on ice and the soluble fraction was recovered by centrifugation at 14.000 g for […]. The protein extract was stored at −80° C. until use. The final point test system for kinase activity measurement was used to carry out experiments on the kinetics under linear conditions. […] ATP and tested compound in a final volume of 20 μl, all in reaction buffer: 50 mM Hepes pH 7.4, 10 mM MgCl2, 5 mM EGTA, 10 mM 2-glycerolphosphate, 1 mM NaF, 1 mM DTT and protease inhibitors. After 30 min, the incubations were stopped by adding 5% H3PO4 and then the proteins were separated by phosphocellulose binding. The measurement of kinase inhibition employed the digital imaging analyzer BAS 1800. The kinase activity was expressed as a percentage of maximum activity and the IC50 value was determined by graphic analysis. The kinase activity is expressed as a percentage of maximum activity (FIG. 1).

CDK9/cyclin T = molecular target: T2, CDK9/cyclin T (Homo sapiens, UniProt P50750); experiment: CDK9/cyclin T kinase inhibition assay; assay type: biochemical; details: kinase inhibitory activity, 15 μM ATP, (YSPTSPS)3 peptide substrate
T2 construct: made in house; host or cells: Sf9 insect cells, baculovirus co-infection
Experimental: as §1

β-adrenergic receptors = experiment: Modulation of the activity of β-adrenergic receptors (isoproterenol-induced cAMP synthesis in C6 glioma); assay type: cell-based; details: rat C6 glioma, cAMP synthesis induced by 5 μM (−) isoproterenol, 30 min, simultaneous addition
Experimental: Mechanism of action of novel compounds is presented on FIG. 2. […] Incubation was at 37° C. in a humidified atmosphere. Assays were performed in the logaritmic growth phase at a density of 2.5×10^5 cells/cm^2. Intracellular cAMP synthesis was induced by addition of 5 μM (−) isoproterenol. After 30 min incubation at 37° C. the medium was removed and the cellular amount of cAMP determined using the cAMP-enzyme immunoassay kit of Amersham. The I50 is determined from a dose-response curve in duplicate. The effect of several novel substituted 6-(2-hydroxybenzylamino)purine derivatives was measured after simultaneous addition with isoproterenol.
As P2Y1-like and A2 purinergic receptors, negatively and positively coupled to adenylate cyclase respectively, are present on rat C6 glioma. It has to be determined if the modulation of the synthesis of cAMP is due to inhibition of the activation of β-adrenergic receptors by isoproterenol are due to activation of purinergic receptors.

[1] = test system: MCF7 (human breast adenocarcinoma); experiment: Calcein AM cytotoxicity assay, MCF7; assay type: cell-based; details: Homo sapiens, MCF7, read-out: Cytotoxic activity IC50 (μM) MCF7
Excerpt: (§2) Cytotoxicity of the compounds is the major property determining their anticancer effect in vivo. One of the parameters used, as the basis for cytotoxicity assays, is the metabolic activity of viable cells. For example, a microtiter assay, which uses the Calcein AM, is now widely used to quantitate cell proliferation and cytotoxicity. For instance, this assay is used in drug screening programs and in chemosensitivity testing. Because only metabolically active cells cleave Calcein AM, these assays detect viable cells exclusively. The quantity of cleaved Calcein AM corresponds to the number of vital cells in the culture. We have been using the following cell lines: MCF7 (human breast adenocarcinoma), K562 (human chronic myelogenous leukaemia), HOS (human osteogenic sarcoma), HeLa (human cervical carcinoma), HL 60 (human promyelocytic leukaemia), G 361 (human malignant melanoma), CEM (human lymphoblastoid leukaemia). All cell lines were grown in DMEM medium (Gibco BRL) supplemented with 10% (v/v) fetal bovine serum and L-glutamine and maintained at 37° C. in a humidified atmosphere with 5% CO2. For cytotoxicity assays, 10^4 cells were seeded into each well of 96 well plate, allowed to stabilize for at least 2 h and then tested compounds were added at various concentrations ranging from 100 to 0.1 μM in triplicates. Three days after drug addition Calcein AM solution (Molecular Probes) was added and let to enter the cells for 1 hour. Fluorescence of viable cells was quantified using Fluoroskan Ascent (Microsystems).

[2] = test system: K562 (human chronic myelogenous leukaemia); experiment: Calcein AM cytotoxicity assay, K562; assay type: cell-based; details: Homo sapiens, read-out: Cytotoxic activity IC50 (μM) K562
Excerpt: as §2

[3] = test system: HOS (human osteogenic sarcoma); experiment: Calcein AM cytotoxicity assay, HOS; assay type: cell-based; details: Homo sapiens, read-out: Cytotoxic activity IC50 (μM) HOS
Excerpt: as §2

p53 = experiment: p53-dependent transcription, β-galactosidase reporter in Arn8 cells; assay type: cell-based, human; design: key to p53 (effect): induction of p53 protein: ++: very strong; +: weak; −: no effect; details: for p53 (effect): induction of p53 protein: Arn8 cells stable transfected with a β-galactosidase reporter gene; for p53 (peak concentration in μM): Arn8 cells, concentration inducing maximum of β-galactosidase activity
Excerpt: Protein p53, accumulated in nuclei upon treatment by the compounds, then leads to trans-activation of natural cell cycle inhibitor p21^WAF1, further blocking the cell cycle. […] This allows qualitative as well as quantitative measurement of CDK inhibitors-induced p53 transcriptional activity via β-galactosidase assay. Then, the effect will be verified in treated cells by immunoblotting of proteins expressed under the control of p53. β-galactosidase activity of human melanoma cell line Arn8 was determined as described. […] Alternatively, β-galactosidase activity was quantified by measuring fluorescence of methylumbelliferyl-β-D-galactopyranoside cleavage product. Cell lines established from the human breast carcinoma (MCF-7) and the human melanoma (Arn8) cell lines were cultured in Dubecco's Modified Eagle Medium (DMEM) supplemented with 10% foetal bovine serum.
Effects of prepared compounds on activation of p53 protein were analysed in human melanoma cell line Arn8. […] The total β-galactosidase activity in Arn8 cells was quantified using a fluorimetric assay.

[4] = test system: C-terminal domain of RNA polymerase II (serine 2 and serine 5 phosphorylation); experiment: Immunoblotting of RNA polymerase II CTD phosphorylation (CDK9 activity in cells), MCF-7; assay type: cell-based, human; details: MCF-7 cells
Experimental: Effect of compounds on CDK9 activity in cells was monitored by site-specific phosphorylations of C-terminal domain of RNA polymerase II, a substrate of CDK9, by means of immunoblotting. For immunoblotting, cell were detached with rubber policeman and washed three times with ice-cold PBS and lysed in buffer (50 mM Tris, pH 7.4, 250 mM NaCl, 5 mM EDTA, 50 mM NaF, 1 mM Na3VO4, 1% Nonidet P40) containing mixture of protease and phosphatase inhibitors (Sigma-Aldrich, USA). 20 μg of total proteins were separated by SDS-polyacrylamide gel electrophoresis (SDS-PAGE) and transferred onto nitrocellulose membranes. Membranes were blocked in 5% milk and 0.1% Tween 20 in PBS and probed overnight with specific monoclonal antibodies or rabbit polyclonal sera. Primary antibodies specific for RNA polymerase II (all from Santa Cruz Biotechnology, California, USA) included: (i) N-20 used at 1 μg/ml, (ii) H14, specific for form phosphorylated at phosphoserine 5, used at 6 μg/ml and (iii) H5, specific for form phosphorylated at phosphoserine 2 used at 4 μg/ml. […] All primary antibodies were diluted in PBS containing 5% powdered milk; 0.1% Tween 20. Peroxidase conjugated rabbit anti-mouse immunoglobulin or porcine anti-rabbit immunoglobulin antisera (DAKO, Denmark) were used as the secondary antibodies and visualised with ECL reagents (Amersham-Pharmacia, Little Chalfont, UK). […]

[5] = test system: p53, p21^WAF1, Mcl-1 in MCF-7 cells; experiment: Immunoblotting of p53, p21WAF1 and Mcl-1 in MCF-7 cells; assay type: cell-based, human; details: MCF7, 24 h, concentration dependent, immunoblotting
Experimental: (§3) For immunoblotting, cell were detached with rubber policeman and washed three times with ice-cold PBS and lysed in buffer (50 mM Tris, pH 7.4, 250 mM NaCl, 5 mM EDTA, 50 mM NaF, 1 mM Na3VO4, 1% Nonidet P40) containing mixture of protease and phosphatase inhibitors (Sigma-Aldrich, USA). 20 μg of total proteins were separated by SDS-polyacrylamide gel electrophoresis (SDS-PAGE) and transferred onto nitrocellulose membranes. Membranes were blocked in 5% milk and 0.1% Tween 20 in PBS and probed overnight with specific monoclonal antibodies or rabbit polyclonal sera. Primary antibodies specific for p53 (DO-1, in house), p21^WAF1 (118, in house), PARP-1 (2C10, Sigma-Aldrich St Louis, Mo., USA), Mcl-1 (S-19, Santa Cruz, USA), all used at 1 μg/ml. All primary antibodies were diluted in PBS containing 5% powdered milk; 0.1% Tween 20. Peroxidase conjugated rabbit anti-mouse immunoglobulin or porcine anti-rabbit immunoglobulin antisera (DAKO, Denmark) were used as the secondary antibodies and visualised with ECL reagents (Amersham-Pharmacia, Little Chalfont, UK).
The induction of p53 protein was apparent in 4 hrs but enhanced level of p21^WAF1 protein was observed only 12 hours after treatment with compound 128 (FIG. 5). The periods of time 12 and 24 hrs were chosen, since the level of protein expression reached a steady state.

p53 in RPMI-8226 cells = experiment: Immunoblotting in RPMI-8226 cells with temperature-sensitive p53 (E285K) at permissive and restrictive temperature; assay type: cell-based, human; details: RPMI-8226 cells, 30° C. versus restrictive temperature
Experimental: as §3, with “Primary antibodies specific for p53 (DO-1, in house), p21^WAF1 (118, in house), PARP-1 (2C10, Sigma-Aldrich St Louis, Mo., USA), Mcl-1 (S-19, Santa Cruz, USA), all used at 1 μg/ml.” left out
Then, we also determined effect of the compounds on the cell lines expressing some temperature-sensitive mutants of p53. For example, in BT474 and RPMI-8226 cells bearing temperature-sensitive mutant of p53 (E285K), p53 protein switches between mutant and wild-type conformation in a temperature-dependent manner. At restrictive (37° C.) temperature mutated p53 protein is expressed, while after shift to a permissive (30° C.) temperature p53 is folded correctly and functional. To analyze the functional involvement of p53 in the efficiency of the treatment with the compounds, we cultivated RPMI-8226 cells independently at two different temperatures (restrictive or permissive), and exposed them to increasing doses of selected compounds. The cell lysates were prepared and the levels of cell cycle regulators were analysed by immunoblotting.

T2 sequence (P50750 whole entry, species assumed): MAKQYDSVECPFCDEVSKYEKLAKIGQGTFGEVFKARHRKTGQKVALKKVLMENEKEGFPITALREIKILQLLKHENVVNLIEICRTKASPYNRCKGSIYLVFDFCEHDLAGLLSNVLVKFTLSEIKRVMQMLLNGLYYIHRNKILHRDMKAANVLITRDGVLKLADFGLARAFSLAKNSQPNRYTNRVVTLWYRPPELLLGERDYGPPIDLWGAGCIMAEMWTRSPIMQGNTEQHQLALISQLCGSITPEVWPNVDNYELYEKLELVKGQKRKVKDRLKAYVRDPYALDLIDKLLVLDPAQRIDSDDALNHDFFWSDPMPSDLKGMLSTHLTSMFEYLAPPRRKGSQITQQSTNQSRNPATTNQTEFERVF
T2 sequence (O60563 whole entry partner, species assumed): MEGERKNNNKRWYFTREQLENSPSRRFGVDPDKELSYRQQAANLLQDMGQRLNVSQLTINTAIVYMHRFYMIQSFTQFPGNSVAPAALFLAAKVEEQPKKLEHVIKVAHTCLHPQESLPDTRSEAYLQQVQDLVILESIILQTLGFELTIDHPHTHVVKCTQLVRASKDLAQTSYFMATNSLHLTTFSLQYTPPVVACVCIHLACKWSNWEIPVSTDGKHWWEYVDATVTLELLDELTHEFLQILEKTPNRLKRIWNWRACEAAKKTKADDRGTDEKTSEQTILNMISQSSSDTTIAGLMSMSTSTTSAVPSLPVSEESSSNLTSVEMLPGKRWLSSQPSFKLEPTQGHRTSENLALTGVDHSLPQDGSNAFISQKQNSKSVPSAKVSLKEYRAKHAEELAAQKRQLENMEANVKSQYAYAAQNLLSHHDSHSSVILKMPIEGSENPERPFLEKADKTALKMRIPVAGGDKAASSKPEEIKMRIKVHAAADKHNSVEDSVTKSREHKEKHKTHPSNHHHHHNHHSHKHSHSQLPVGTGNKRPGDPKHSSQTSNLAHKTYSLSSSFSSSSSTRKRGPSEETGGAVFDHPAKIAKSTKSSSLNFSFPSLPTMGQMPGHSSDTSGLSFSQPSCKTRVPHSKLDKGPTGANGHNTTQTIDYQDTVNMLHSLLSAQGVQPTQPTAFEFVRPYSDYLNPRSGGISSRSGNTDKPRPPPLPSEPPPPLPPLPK

IC50 (CDK2/cyclin E)	IC50 (CDK9/cyclin T)	SMILES	EFFECT: fold activation (modulation of the activity of β-adrenergic receptors) (β-adrenergic receptors)	IC50 [1]	IC50 [2]	IC50 [3]	p53 (effect): induction of p53 protein (p53)	p53 (peak concentration in μM) (p53)	EFFECT (modulation of the activity of β-adrenergic receptors) (β-adrenergic receptors)	levels of serine 2 and serine 5 phosphorylation of RNA polymerase II CTD [4]	activation of p53-dependent transcription (p53; Arn8 reporter cell line, β-galactosidase reporter activity)	expression of p53, p21^Waf1 and Mcl-1 [5]	expression of anti-apoptotic protein Mcl-1 (p53 in RPMI-8226 cells)
0.08 µM	0.05 µM	CCC(CO)Nc1nc(NCc2ccc(O)cc2O)c2ncn(C(C)C)c2n1 (stereo not shown) [Compound 119]	1.6-fold activation	4.3 µM	13 µM	8.1 µM	+	12.0 µM					
		CC[C@H](CO)Nc1nc(NCc2ccccc2)c2ncn(C(C)C)c2n1 [ROSC, roscovitine, reference compound]					++		inactive	substantially reduced; also recorded: is inhibited	proved to activate p53-dependent transcription	accumulation of tumor suppressor protein p53, expression of p53-regulated CDK inhibitor p21^Waf1 and downregulation of antiapoptotic protein Mcl-1	suppressed more efficiently at 30 °C
0.05 µM	0.02 µM	CCC(CO)Nc1nc(NCc2cc(F)ccc2O)c2ncn(C(C)C)c2n1 (stereo not shown) [Compound 89]	1.9-fold activation	3.2 µM	14.7 µM	5.3 µM	++	6.0 µM					
